Common to all, as to format: functional
Test [1] in a line: Antioxidant activity assessed as hydroxyl radical scavenging activity at 100 ug/ml.
Test [2] can be described thus: Antioxidant activity assessed as inhibition of xanthine-xanthine oxidase generated superoxide anion radical production at 100 ug/ml after 30 min by NBT reduction assay.
The test system of test [3] is Rattus norvegicus. Description: Antihyperlipidemic activity in Rattus norvegicus Charles Foster (rat) trition WR-1339-induced hyperlipidemic model assessed as reduction of total triglyceride level in plasma at 200 mg/kg, po. More on the design: scale not given: the % may be the effect or the level left.
For test [4], the system named is Rattus norvegicus. Description: Antihyperlipidemic activity in Rattus norvegicus Charles Foster (rat) trition WR-1339-induced hyperlipidemic model assessed as reduction of total cholesterol level in plasma at 200 mg/kg, po. On the set-up: scale not given: the % may be the effect or the level left.
For test [5], the system named is Rattus norvegicus. Description: Antihyperlipidemic activity in Rattus norvegicus Charles Foster (rat) trition WR-1339-induced hyperlipidemic model assessed as reduction of total phospholipid level in plasma at 200 mg/kg, po. More on the design: scale not given: the % may be the effect or the level left.
Test [6] is described as follows: Antioxidant activity assessed as inhibition of xanthine-xanthine oxidase generated superoxide anion radical production at 200 ug/ml after 30 min by NBT reduction assay.
Test [7] in a line: Antioxidant activity assessed as hydroxyl radical scavenging activity at 200 ug/ml.

Drawing on ChEMBL document CHEMBL3046443, “Lipid lowering and antioxidant activity of flavones in triton treated hyperlipidemic rats” (2011), this text covers Activity and inhibition for five compounds.

Molecules are shown by their SMILES.

Take `O.O=C1CC(c2ccc(O)cc2)Oc2cc(O)cc(O)c21` (centres undefined) [NARINGENIN HYDRATE]: the Activity in test [1] was 26%; in test [3], 26%; in test [4], 27%; in test [5], 27%; in test [7], 38%. The inhibition in test [2] is 19%; in test [6], 34%.

For the compound `C/C=C1\C(=O)C[C@H]2[C@@H]3CCC4=CC(=O)CC[C@]4(C)[C@H]3CC[C@]12C` [GUGGULSTERONE], the results for the Activity in test [3], in test [4] and in test [5] were 36%, 35% and 35%, respectively.

In the case of `OC[C@@H](O)[C@@H](O)[C@H](O)[C@H](O)CO`, the Activity in test [7] is -48%.

Consider `C[C@@H]1O[C@@H](OC[C@H]2O[C@@H](Oc3c(-c4ccc(O)c(O)c4)oc4cc(O)cc(O)c4c3=O)[C@H](O)[C@@H](O)[C@@H]2O)[C@H](O)[C@H](O)[C@H]1O` [RUTIN], for which the Activity in test [1] came to 21%; in test [3], 11%; in test [4], 8%; in test [5], 10%; in test [7], 32%. For the same compound, the figures for the inhibition in test [2] and in test [6] were 18% and 35%, respectively.

As to `O=c1c(O)c(-c2cc(O)c(O)c(O)c2)oc2cc(O)cc(O)c12` [MYRICETIN], the Activity in test [1] was -36%; in test [3] it was 24%; in test [4], 24%; in test [5], 25%; in test [7] it was 53%. Besides, in test [2], the inhibition was found to be 27%.

Usually inhibition stands for the change of the read-out against control, counted positive when it falls.
